Test results from article PMC10483858 (Molecular Cancer, 2023).

What was measured:
[1] = test system: PD-L1/CD80 and PD-1/PD-L1 pathways; details: ref [14]; cited from earlier work
[2] = test system: hPD-1/hPD-L1 immune checkpoint (Jurkat-ECs with CHO/TCRAct/PD-L1 cells); assay: Immune checkpoint blockade (ICB) assay, hPD-1/hPD-L1 setup; assay type: cell-based, human; details: for blockade of hPD-1/hPD-L1, restored activation of Jurkat-ECs (in words): 24-hour incubation, in parallel to hPD-1/mPD-L1 assay, Fig. 2C
Experimental: (§1) The peptide was tested along with three therapeutic antibodies, atezolizumab, avelumab, and durvalumab.
(§2) Data points represent mean ± SD values from 4–6 independent experiments. […] Triton X-100-treated cells and cells without the addition of a Redox Dye were used as baseline controls. […] In the assay, three antibodies (atezo. – atezolizumab, ave. – avelumab, durva. – durvalumab) and the peptide pAC65 were used. […] The graphs show fractions of positive cells and represent cumulative data from 3–4 donors.
These cell lines were cultured in RPMI 1640 medium (Biowest) supplemented with 10% fetal bovine serum (FBS, Biowest) and […] L-glutamine (Biowest). The selection antibiotics: G418 (250 μg/mL, InvivoGen) and Hygromycin B Gold (50 μg/mL, InvivoGen) were also added to the culture medium as per application.
The assay was performed according to the manufacturer’s protocol (Promega). […] The dilutions of monoclonal antibodies were prepared in the assay buffer. Followed by a 6-hour (routinely) or 24-hour (for testing bioactivity in parallel to the hPD-1/mPD-L1 ICB assay) incubation at 37°C and 5% CO2, and an additional 20 min of incubation with the luminescence reagent (Bio-Glo™ Luciferase Assay System, Promega) at room temperature, activation of Jurkat ECs, reflected by luciferase activity, was monitored by luminescence measurements on a Spark microplate reader (Tecan). […] Data points represent mean ± SD values from four to eight independent experiments. EC50 values as half-maximal effective concentrations were calculated from the Hill curve fitting to the experimental data using Origin Pro 2020 software (OriginLab).

[3] = test system: hPD-1/mPD-L1 immune checkpoint (Jurkat-ECs with B16-F10/TCRAct cells); assay: Immune checkpoint blockade (ICB) assay, hPD-1/mPD-L1 setup; assay type: cell-based, human (hPD-1); details: B16-F10/TCRAct cells treated with 20 ng/ml mouse IFN-γ for 48 h; 24 h co-culture, Fig. 2D; three independent experiments
Experimental: as §1, §2
Mouse skin melanoma B16-F10 cell line was purchased from the American Type Culture Collection (ATCC) and cultured in RPMI 1640 medium (Biowest) supplemented with 10% fetal bovine serum (FBS, Biowest) and […] L-glutamine (Biowest). The generation of the B16-F10 cells overexpressing TCR-Activator (maAPCs) clone 3A5 was described in our previous work (Magiera-Mularz et al., 2021). […]
B16-F10/TCRAct cells (maAPCs) were seeded on 96-well white bottom plates at the density of 2,000 cells/well and treated with 20 ng/ml of mouse recombinant IFN-γ (Thermo Fisher Scientific) for 48 hours before the ICB assay. […] After 24 hours (37°C, 5% CO2) and 20 min of additional incubation with the luminescence reagent (Bio-Glo™ Luciferase Assay System, Promega) at room temperature, activation of Jurkat ECs was monitored by luminescence measurements on a Spark microplate reader (Tecan). […]

[4] = test system: hPD-1/mPD-L1 immune checkpoint (Jurkat-ECs with B16-F10/TCRAct cells); details: ref [12]; cited from earlier work
Experimental: To evaluate the bioactivity of the pAC65 peptide, cell-based immune checkpoint blockade assays, T-cell activation (TCA) assay, and a viability assay were performed.

Compound	blocking of both PD-L1/CD80 and PD-1/PD-L1 pathways [1]	blockade of hPD-1/hPD-L1, restored activation of Jurkat-ECs (in words) [2]	blockade of hPD-1/mPD-L1, restored activation of Jurkat-ECs (in words) [3]	EC50 ([2]; luciferase luminescence, 6-hour incubation (routinely), 37°C, 5% CO2, 0.1% DMSO (pAC65), Hill fit, 4–6 independent experiments, read-out: EC50, activation of Jurkat-ECs) [nM]	specificity towards hPD-L1 / failure to target mouse PD-L1 (previous studies) [4]
durvalumab: therapeutic PD-L1-blocking monoclonal antibody (Selleckchem)	Blocking of both PD-L1/CD80 and PD-1/PD-L1 pathways has also been documented	efficiently blocked the hPD-1/hPD-L1 immune checkpoint	atezolizumab but not durvalumab was able to block the hPD-1/mPD-L1 immune checkpoint		
atezolizumab: therapeutic PD-L1-blocking monoclonal antibody (Selleckchem)	Blocking of both PD-L1/CD80 and PD-1/PD-L1 pathways has also been documented	efficiently blocked the hPD-1/hPD-L1 immune checkpoint		0.14	
Cc1c(COc2cc(OCc3cccc(C#N)c3)c(CN3C[C@H](O)C[C@@H]3C(=O)O)cc2Cl)cccc1-c1ccc2c(c1)OCCO2 [BMS-1166]					specificity towards the hPD-L1 protein
Cc1cc(CN[C@H](CO)C(=O)O)c(OCc2cccc(C#N)c2)cc1OCc1cccc(-c2ccc3c(c2)OCCO3)c1C [BMS-1001]					specificity towards the hPD-L1 protein
avelumab: therapeutic PD-L1-blocking monoclonal antibody (MedChemExpress)	Blocking of both PD-L1/CD80 and PD-1/PD-L1 pathways has also been documented	restored the activation of Jurkat-ECs blocked with either the hPD-L1-expressing or mPD-L1 expressing cells	restored the activation of Jurkat-ECs blocked with either the hPD-L1-expressing or mPD-L1 expressing cells		
